# Experimental data: paper PMC6017976, “Enzyme Kinetics and Molecular Docking Studies on Cytochrome 2B6, 2C19, 2E1, and 3A4 Activities by Sauchinone” (Molecules : A Journal of Synthetic Chemistry and Natural …, 2018)
# Legend:
# [1] = target: T1, CYP2A6 (Homo sapiens, UniProt P11509); assay: Reversible inhibition (RI) of CYP2A6 activity in HLMs (cocktail probe assay); conditions: read-out: IC50 on CYP2A6 activity (RI); HLMs; reversible inhibition; 5 μM coumarin; 30 min incubation; inhibitor 0–300 μM
# T1 sequence (P11509 1-494): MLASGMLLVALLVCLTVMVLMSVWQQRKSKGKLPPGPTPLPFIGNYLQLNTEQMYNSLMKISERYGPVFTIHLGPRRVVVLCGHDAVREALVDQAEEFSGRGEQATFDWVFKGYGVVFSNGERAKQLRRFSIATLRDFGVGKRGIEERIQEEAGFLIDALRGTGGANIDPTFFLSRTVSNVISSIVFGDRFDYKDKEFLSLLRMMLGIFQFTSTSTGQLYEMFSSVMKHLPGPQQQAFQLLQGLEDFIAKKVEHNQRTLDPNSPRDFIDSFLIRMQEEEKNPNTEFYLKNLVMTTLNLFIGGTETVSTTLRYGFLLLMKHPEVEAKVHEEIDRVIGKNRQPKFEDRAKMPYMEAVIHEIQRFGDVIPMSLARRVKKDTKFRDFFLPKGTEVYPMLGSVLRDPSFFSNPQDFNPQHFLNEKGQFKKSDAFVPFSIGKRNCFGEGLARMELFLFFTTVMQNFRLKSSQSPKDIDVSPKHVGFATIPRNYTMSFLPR
# [2] = male, ICR, mouse, in vivo
# Method: (§1) For analysis of sibutramine, a mobile phase was made, consisting of 10 mM ammonium acetate adjusted to pH 4 with acetic acid: acetonitrile (94:6, v/v) and was eluted at 0.2 mL/min. […] Other parameters of mass spectrometers were the same as those used for analysis of metabolites of CYP substrates.
# (§2) Male ICR mice (5 weeks old, weight of 20–25 g) were purchased from the Charles River Company Korea (Orient, Seoul, Korea). […] They were provided free access to food and water. These mice were allowed to acclimate to these conditions for three days prior to inclusion in the experiments.
# (§3) Surgical procedures for mice were conducted under tiletamine HCl and zolazepam HCl anesthesia by intramuscular injection. The carotid artery (for blood sampling) cannulation was carried out using catheters (BASi, West Lafayette, IN, USA). Drug administration and blood sampling were performed at 5 h after surgery [55]. […] Other procedures were the same as those used for the sibutramine pharmacokinetic study.
# (§4) AUC was calculated using the trapezoidal rule method. Standard methods [56] were used to calculate pharmacokinetic parameters using non-compartmental analysis (WinNonlin 2.1; Pharmasight Corp., Mountain View, CA, USA). Cmax and Tmax were read reversibly from extrapolated data.
# [3] = in vivo; conditions: male, ICR, mouse
# Method: as §1, §2, §3, §4
AUC greater with sauchinone than drug alone (by %) [2],CL/F slower with sauchinone than drug alone (by %) [2],Cmax higher with sauchinone than drug alone (by %) [2],t1/2 smaller with sauchinone than drug alone (by %) [2],CL/F [3],Tmax [3],half-life [3],CL/F ([3]; po),Tmax ([3]; po),half-life ([3]; po),Compound,IC50 [1]
–,–,–,–,–,–,–,–,–,–,"N[C@@H]1C[C@H]1c1ccccc1 (racemic) [tranylcypromine, reference compound]",1990 nM
31.0%,24.7%,17.3%,19.1%,3.81 ± 0.514 mL/min/kg,0.25 h,2.18 ± 0.112 h,2.87 ± 0.225 mL/min/kg,0.25 h,1.77 ± 0.427 h,"COC(=O)[C@H](c1ccccc1Cl)N1CCc2sccc2C1 [Clopidogrel, clopidogrel]",–
